One series can be described thus: Stability. It counts as physicochemical.
Another series concerns Walker sarcoma 256. Briefly: Cancerostatic effectiveness: inhibition of tumor growth of Walker sarcoma 256 after a single administration. The following applies: for % inhibition of the growth of Walker sarcoma 256: single administration, tumor weight after 10 days. The series is classed as in vivo, Sprague-Dawley rats. Here is the method: Sprague-Dawley rats with a body weight of 80 to 120 g and an age of 6 to 8 weeks were subcutaneously inoculated in the neck with tumor cells. In each case, there was used 0.1 ml of an aqueous suspension of about 10^6 tumor cells of the Walker sarcoma 256 (solid, rat).
4-Imino-1,3-diazabicyclo[3.1.0]hexan-2-one was dissolved in physiological saline solution (in each case, the desired amount in 5 ml solution/kg body weight of experimental animal). 6 Hours after inoculation of the animals, these solutions were administered intravenously or orally by means of a stomach tube. The control animals received 5 ml/kg body weight of physiological saline. 20 experimental animals and 20 control animals were used per experiment. The animals were sacrificed with ether after 10 days, the tumors extirpated and the weight of the tumors of the control group compared with those of the experimental group.

A further series concerns leukocytes. Briefly: Immunity-stimulating action: corpuscular blood components (leukocytes, lymphocytes, erythrocytes) after a single intravenous administration. It counts as in vivo, Sprague-Dawley rats. The following applies: for number of leukocytes/mm^3: third day, control 7,300. Here is the method: The active material, dissolved in 5 ml physiological saline, was administered intravenously into a vein in the tails of 8 Sprague-Dawley rats with an average body weight of 200 to 250 g. As controls, there were used 8 rats which were only treated with 5 ml physiological saline per kg. body weight. In the following days, 1 to 2 drops of blood were taken from a tail vein and the corpuscular blood components determined. The average values were determined statistically from the 8 values of the individual animals.

Series [1] concerns antibody-forming spleen cells. Briefly: Number of antibody-forming spleen cells by Jerne's method after intravenous administration. The series is classed as in vivo, mice. The following applies: three days; for number of antibody-forming spleen cells: mice immunized with sheep erythrocytes, control 4,600; for antibody-forming spleen cells, % of the control: mice. As for the experimental part: 20 male white mice with a body weight of 20 to 25 g were each immunized with 1 ml preserved sheep erythrocytes (1 ml contains 5 × 10^8 erythrocytes). On the same day, 4-imino-1,3-diazabicyclo[3.1.0]hexan-2-oneor a comparative active material, dissolved in 5 ml physiological saline/kg. mouse body weight, were administered intravenously. For control purposes, 20 animals were also immunized with 1 ml sheep erythrocytes and treated with 5 ml/kg physiological saline. Three days after administration, the spleens of the animals were removed under sterile conditions and the number of antibody-forming spleen cells determined according to Jerne's technique. The individual values were determined.

Series [2] is described as follows: Acute toxicity (LD50), rats. Conditions: rat, in vivo, single intravenous dose.
The next series is described as follows: in vivo. Conditions: mouse, iv.
Series [3] is described as follows: Acute toxicity (LD50), mice. Conditions: mouse, in vivo, po.
Series [4] in a line: Solubility in water, physiological saline and aqueous alkali metal hydroxide solutions. It counts as physicochemical.
Where [5] appears, read: single intravenous, rats, in words.

For orientation: LD50 means the dose expected to kill half of the subjects tested. Low readings indicate greater toxicity, high ones lower toxicity. For `N=C1NC(=O)N2CC12` (centres unmarked) [4-imino-1,3-diazabicyclo-[3.1.0]hexan-2-one], in “Stability” (acid), the acid stability result is “acid labile”. Further, the “stability in dry form” value in “Stability” (dry form) was “stable in dry form”. The tumor growth result in the series with Walker sarcoma 256 (intravenous and oral administration) was “significantly inhibited”. Moreover, the “% inhibition of the growth of Walker sarcoma 256” value was found to be 7.5% with Walker sarcoma 256 (intravenous, 0.1 mg/kg); 17.5% in the series with Walker sarcoma 256 (intravenous, 1.0 mg/kg); 49.5% in the series on Walker sarcoma 256 (intravenous, 10.0 mg/kg); 31.0% in the series on Walker sarcoma 256 (intravenous, 100.0 mg/kg); 39.5% in the series with Walker sarcoma 256 (intravenous, 200.0 mg/kg); 20.0% in the series with Walker sarcoma 256 (oral, 5.0 mg/kg). For the same molecule, the “% inhibition of the growth of Walker sarcoma 256” value in the series on Walker sarcoma 256 (oral, 125.0 mg/kg) was found to be 62.0%. The “number of leukocytes/mm^3” value in the series on leukocytes (2 mg/kg rat, single intravenous) is reported as 10,300 leukocytes/mm^3; in the series with leukocytes (5 mg/kg rat, single intravenous), 9,800 leukocytes/mm^3; with leukocytes (10 mg/kg rat, single intravenous), 10,800 leukocytes/mm^3; with leukocytes (20 mg/kg rat, single intravenous), 12,300 leukocytes/mm^3; in the series on leukocytes (40 mg/kg rat, single intravenous), 10,800 leukocytes/mm^3; in the series on leukocytes (75 mg/kg rat, single intravenous), 11,800 leukocytes/mm^3. In addition, the “number of leukocytes/mm^3” value in the series with leukocytes (150 mg/kg rat, single intravenous) was 8,000 leukocytes/mm^3; in the series with leukocytes (400 mg/kg rat, single intravenous), 6,500 leukocytes/mm^3. Also, in the series on leukocytes (deduced from the experiments, all at once or in several doses), the “dosage necessary for immunity stimulation” value is listed as 1 to 50 mg/kg body weight. For the same molecule, the “time after which the effect slowly decreases” value in the series on leukocytes (immunity stimulation) is given as “about 2 weeks”. Moreover, the number of leukocytes entry in the series on leukocytes (setting [5]) is reported as “increased considerably”. For the same molecule, the “percentage proportion of the lymphocytes” value in the series with leukocytes (setting [5]) is recorded as “increased”. The number of erythrocytes entry in the series on leukocytes (single intravenous, rats, whole experimental period) is “did not change significantly”. In addition, in the series on leukocytes (single intravenous, rats, only after the expiry of), the “time until the values of the control animals were again reached” value is 20 to 25 days. The “number of antibody-forming spleen cells” value in series [1] (2.5 mg/kg intravenous) was 23,000 spleen cells. Besides, the “antibody-forming spleen cells, % of the control” value (shortened to “antibody-forming spleen cells, %”) in series [1] (2.5 mg/kg intravenous) is 500 % of the control. Moreover, the LD50 was 660 mg/kg in series [2], 750 mg/kg in the series “in vivo” and > 4000 mg/kg in series [3]. Moreover, the water solubility result in series [4] is “good water solubility”. Besides, in series [4] (physiological saline and aqueous alkali metal hydroxide solutions), the solubility entry was “very readily soluble”.

For `O=P1(N(CCCl)CCCl)NCCCO1` (centres unmarked) [cyclophosphamide], in series [1] (125.0 mg/kg intravenous), the “number of antibody-forming spleen cells” value is given as 460 spleen cells and the “antibody-forming spleen cells, %” value is on record as 10 % of the control.

Consider phytohaemagglutinin, for which, in series [1] (500.0 mg/kg intravenous), the “number of antibody-forming spleen cells” value is 1,400 spleen cells and the “antibody-forming spleen cells, %” value is 30 % of the control.

Values taken from patent publication US4083987A, “4-Imino-1,3-diazabicyclo-(3.1.0)-hexan-2-one as a cancerostat and immuno-stimulant” (Boehringer Mannheim GmbH, priority 1975, dated 1978).
